The source of these data is patent EP0062018A1, “Novel phenyl-piperidines” (priority 1981, dated 1982).

One test has as its system rabbit right atria. As to the kind of experiment: Chronotropic effect (heart frequency) in isolated spontaneously beating right atria. It is filed as cell-based. Conditions: for Emax / EC50: Oryctolagus cuniculus, rabbit right atria, heart rate; for Emax: read-out: HR ISA; for EC50: cumulative concentrations, Krebs-buffer pH 7.4, 32°C, read-out: HR EC50; for positive chronotropic effect: result in words, isolated rabbit right atria. As for the experimental part:
(§1) Pharmacological studies on cardiac effects on heart frequency and contractility in isolated right atria and papillary muscle from rabbit. Rabbits with an average weight of 2.5 kg were killed by a blow and the hearts were rapidly removed. The right atria and a papillary muscle from the right ventricle were isolated and set up to contract isometrically in an organ bath. The bath contained 50 ml Krebs-buffer (pH 7.4) and the temperature was kept at 32°C. The contractions were measured by means of a force displacement transducer (Grass Model FT03) coupled to a Grass Model 7 Polygraph with a […] (Grass Model 7PIF). The spontaneously beating right atria was stretched to a resting tension high enough to measure the contractions and to trigger a tachograph for registration of the frequency. The papillary muscle was stretched to the length at which maximal tension was developed and was driven at a frequency of 1 Hz by a current 20 per cent above treshold and with a duration of 5 msec. After 60 min. equilibration, dose response curves to cumulative concentrations of isoprenaline were constructed for chronotropic effect, i.e. increase in frequency (atria) and positive inotropic effect, i.e. increase in contractility (papillary muscle). After wash-out similar curves were constructed for the compounds according to the invention. The positive inotropic agent dopamine was included for comparison. In order to establish the maximal chronotropic and inotropic responses of the preparations, isoprenaline was added immediately after the maximal concentrations of the compounds. The maximal effects of the compounds compared with the maximal effect of isoprenaline are expressed as intrinsic activity (ISA).

Test [1] concerns rabbit right ventricle papillary muscle. As to the kind of experiment: Positive inotropic effect (contractility) in isolated electrically driven papillary muscle. It is filed as cell-based. Conditions: Oryctolagus cuniculus; for Emax: papillary muscle, read-out: Tmax ISA; for EC50: rabbit right ventricle papillary muscle, read-out: Tmax EC50. As for the experimental part: as §1
Where [2] appears, read: intrinsic activity: maximal effect compared with maximal effect of isoprenaline.
[3] abbreviates: driven at 1 Hz, Krebs-buffer pH 7.4, 32°C.
[4] abbreviates: Tested after β-blockade, intrinsic activity vs isoprenaline.

The structures appear in SMILES notation. Counter-ions that a name gives are not always drawn. Like-named read-outs stand apart in the source and are kept apart here.

In the case of `CN1CCCC(c2cc(O)cc(O)c2)C1` (centres unmarked) [Example 3, 3-(3,5-Dihydroxyphenl)-N-methlpiperidine], the Emax in the test on rabbit right atria (setting [2]) is 0%; in test [1] (setting [2]), 37%. Besides, in test [1] (setting [3]), the concentration for a half-maximal effect (EC50) is 11 µM.
With `CC(C)NCC(O)c1ccc(O)c(O)c1` (centres unmarked) [Isoprenaline, reference compound], the Emax (in the test with rabbit right atria (setting [2]); in test [1] (setting [2])) was 100% throughout. The EC50 with rabbit right atria was found to be 0.003 µM; in test [1] (setting [3]), 0.01 µM. Further, in the test on rabbit right atria, the positive chronotropic effect result is recorded as “marked positive chronotropy in doses significantly lower than those producing positive inotropy”.
For the compound `CCCCN1CCCC(c2cc(O)cc(O)c2)C1` (centres unmarked) [Example 5], the Emax in the test on rabbit right atria (setting [4]) worked out at 0%; in test [1] (setting [4]), 42%. In addition, the EC50 in test [1] (Tested after β-blockade) is 18.4 µM.
As to `CCN1CCCC(c2cc(O)cc(O)c2)C1` (centres unmarked) [Example 2, 3-(3,5-Dihydroxyehenyl)-N-ethylpiperidine hydrobromide], the Emax in the test with rabbit right atria (setting [2]) came to 0%; in test [1] (setting [2]) it was 32%. For the same compound, the EC50 in test [1] (setting [3]) is 298 µM.
For `CCCCCN1CCCC(c2cc(O)cc(O)c2)C1` (centres unmarked) [Example 6] the same measures were 0%, 43% and 0.24 µM.
Turning to `NCCc1ccc(O)c(O)c1` [Dopamine, reference compound], the Emax in the test with rabbit right atria (setting [2]) is 91%; in test [1] (setting [2]), 78%. For the same compound, the EC50 in the test with rabbit right atria is 14.2 µM; in test [1] (setting [3]), 19.7 µM. Besides, in the test on rabbit right atria, the positive chronotropic effect result is on record as “marked positive chronotropic effect in doses which caused positive inotropy”.
As for `CC(C)N1CCCC(c2cc(O)cc(O)c2)C1` (centres unmarked) [Example 7], the Emax in the test on rabbit right atria (setting [4]) stood at 0%; in test [1] (setting [4]), 26%. Besides, the EC50 in test [1] (Tested after β-blockade) stood at 43 µM.
Turning to `CCCN1CCCC(c2cc(O)cc(O)c2)C1` (centres unmarked) [Example 1, 3=(3,5=Dihydroxyehenyl)N-n-eroeyleiperidine hydrobromide], the Emax came out at 0% in the test with rabbit right atria (setting [2]) and 30% in test [1] (setting [2]). For the same compound, the positive chronotropic effect entry with rabbit right atria is “no positive chronotropic effect”. For the same compound, the EC50 in test [1] (setting [3]) was determined as 107 µM.

The term EC50 denotes the midpoint of the concentration-response curve.
